Consider 1 molecule from article PMC9247443 (Frontiers in Pharmacology, 2022).

This experiment addresses human S1P5 (Homo sapiens, UniProt Q9H228). In words: Saturation radioligand binding with [^3H]-ozanimod. Particulars: CHO cell membranes expressing human S1P5, saturation binding. The source says: Stable clones of Chinese hamster ovary (CHO) cells expressing human S1P1 and S1P5 were generated by transfecting the cells with the N-terminal hemagglutinin-tagged receptor in pcDNA3.1 expression vectors followed by antibiotic selection for S1P1 and S1P5 and picking of clones using cyclic adenosine monophosphate assay, fluorescence-activated flow cytometry using the associated tag as well as functional [^35S]-GTPγS binding assays. Stable clones of CHO cells expressing human S1P2, S1P3, and S1P4 with an N-terminal FLAG tag were purchased from Multispan, Inc. (Hayward, CA, United States; catalog numbers C1051-1, CG1049-1, and CG1052-1 for S1P2, S1P3, and S1P4, respectively). Cells were grown to confluence in adherent culture in 500-cm^2 culture trays before being detached with cell scraper in cell-lifting buffer (10 mM HEPES/154 mM NaCl/6.85 mM ethylenediaminetetraacetic acid [EDTA], pH 7.4) and pelleted by centrifugation for 5 min at 1000 rpm. […]
Filter plates were prepared by adding 80 μl/well of 0.3% poly (ethyleneimine) and incubating for 60 min at room temperature before washing with 150 ml of filtration buffer (50 mM Tris HCl [pH 7.4], 5 mM MgCl2, and 1 mM EDTA) using a FilterMate-96 harvester. […] Filter plates were then allowed to air dry before the addition of 50 μL/well of MicroScint-20 cocktail, plate sealing, and reading on a MicroBeta2 microplate scintillation counter. […]

Each structure is given as a SMILES string.

Chain of human S1P5 (Q9H228 whole entry): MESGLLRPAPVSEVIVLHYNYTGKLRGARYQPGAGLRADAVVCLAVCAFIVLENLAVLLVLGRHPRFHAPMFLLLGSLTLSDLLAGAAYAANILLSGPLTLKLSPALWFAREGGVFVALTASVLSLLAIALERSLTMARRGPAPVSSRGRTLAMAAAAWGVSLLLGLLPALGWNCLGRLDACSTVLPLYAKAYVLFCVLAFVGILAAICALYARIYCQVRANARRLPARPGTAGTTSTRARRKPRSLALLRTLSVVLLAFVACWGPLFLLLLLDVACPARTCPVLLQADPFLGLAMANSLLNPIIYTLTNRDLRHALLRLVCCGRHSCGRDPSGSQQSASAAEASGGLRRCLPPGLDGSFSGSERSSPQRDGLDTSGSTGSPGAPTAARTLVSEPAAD

`[3H]CC([3H])(C)Oc1ccc(-c2nc(-c3cccc4c3CC[C@@H]4NCCO)no2)cc1C#N` (stereo partly shown) [[^3H]-ozanimod] displayed a Kd of 3.13 nM.

A word on the Kd: it is the concentration at which binding is half-saturated. Lower therefore signals tighter binding.
